Legend:
IGROV-1 [1] = test: In vitro total growth inhibition against ovarian cancer IGROV1 cell lines was reported.; assay type: functional; conditions: Homo sapiens, read-out: Log TGI (converted)
DU-145 [2] = test: In vitro growth inhibition against prostate cancer […] cell line was reported.; assay type: functional; conditions: Homo sapiens
DU-145 [3] = test: In vitro total growth inhibition against prostate cancer […] cell lines was reported.; assay type: functional; conditions: Homo sapiens, read-out: Log TGI (converted)
HL-60 = test: Log of molar concentration leading to 50% cell death against leukemia HL-60(TB) cell line was reported; assay type: functional; conditions: Homo sapiens, read-out: Log LC50 (the source's name) (converted)
MDA-MB-231 = test: Log of molar concentration leading to 50% cell death against breast cancer MDA-MB-231/ATCC cell line was reported; assay type: functional; conditions: Homo sapiens, read-out: Log LC50 (the source's name) (converted)
UACC-62 = test: In vitro total growth inhibition against melanoma UACC-62 cell lines was reported.; assay type: functional; conditions: Homo sapiens, read-out: Log TGI (converted)
M14 = test: In vitro total growth inhibition against melanoma M14 cell lines was reported.; assay type: functional; conditions: Homo sapiens, read-out: Log TGI (converted)
SK-MEL-28 = test: Log of molar concentration leading to 50% cell death against melanoma SK-MEL-28 cell line was reported; assay type: functional; conditions: Homo sapiens, read-out: Log LC50 (the source's name) (converted)
PC-3 [4] = test: Log of molar concentration leading to 50% cell death against prostate cancer PC-3 cell line was reported; assay type: functional; conditions: Homo sapiens, read-out: Log LC50 (the source's name) (converted)
IGROV-1 [5] = test: Log of molar concentration leading to 50% cell death against ovarian cancer IGROV1 cell line was reported; assay type: functional; conditions: Homo sapiens, read-out: Log LC50 (the source's name) (converted)
EKVX = test: In vitro growth inhibition against non-small-cell lung cancer EKVX cell line was reported.; assay type: functional; conditions: Homo sapiens
HOP-62 = test: In vitro growth inhibition against non-small-cell lung cancer HOP-62 cell line was reported.; assay type: functional; conditions: Homo sapiens
HOP-92 = test: In vitro growth inhibition against non-small-cell lung cancer HOP-92 cell line was reported.; assay type: functional; conditions: Homo sapiens
NCI-H46 = test: In vitro growth inhibition against non-small-cell lung cancer […] cell line was reported.; assay type: functional; conditions: Homo sapiens
NCI-H226 = test: In vitro growth inhibition against non-small-cell lung cancer NCI-H226 cell line was reported.; assay type: functional; conditions: Homo sapiens
NCI-H23 = test: In vitro growth inhibition against non-small-cell lung cancer NCI-H23 cell line was reported.; assay type: functional; conditions: Homo sapiens
NCI-H322M = test: In vitro growth inhibition against non-small-cell lung cancer […] cell line was reported.; assay type: functional; conditions: Homo sapiens
RXF 393 = test: Log of molar concentration leading to 50% cell death against renal cancer RXF 393 cell line was reported; assay type: functional; conditions: Homo sapiens, read-out: Log LC50 (the source's name) (converted)
OVCAR-3 = test: In vitro growth inhibition against ovarian cancer OVCAR-3 cell line was reported.; assay type: functional; conditions: Homo sapiens
PC-3 [6] = test: In vitro growth inhibition against prostate cancer PC-3 cell line was reported.; assay type: functional; conditions: Homo sapiens
ACHN = test: In vitro growth inhibition against renal cancer ACHN cell line was reported.; assay type: functional; conditions: Homo sapiens
COLO 205 = test: In vitro growth inhibition against colon cancer COLO 205 cell line was reported.; assay type: functional; conditions: Homo sapiens
LOX IMVI = test: In vitro growth inhibition against melanoma LOX IMVI cell line was reported.; assay type: functional; conditions: Homo sapiens
HCC 2998 = test: Log of molar concentration leading to 50% cell death against colon cancer HCC2998 cell line was reported; assay type: functional; conditions: Homo sapiens, read-out: Log LC50 (the source's name) (converted)
HT-29 = test: In vitro growth inhibition against colon cancer HT-29 cell line was reported.; assay type: functional; conditions: Homo sapiens
SR = test: In vitro total growth inhibition against leukemia SR cell lines was reported.; assay type: functional; conditions: Homo sapiens, read-out: Log TGI (converted)
A498 = test: In vitro total growth inhibition against renal cancer A-498 cell lines was reported.; assay type: functional; conditions: Homo sapiens, read-out: Log TGI (converted)
OVCAR-8 = test: Log of molar concentration leading to 50% cell death against ovarian cancer OVCAR-8 cell line was reported; assay type: functional; conditions: Homo sapiens, read-out: Log LC50 (the source's name) (converted)
MDA-MB-435 [7] = test: In vitro growth inhibition against breast cancer MDA-MB-435 cell line was reported.; conditions: Homo sapiens
MDA-MB-435 [8] = test: In vitro total growth inhibition against breast cancer MDA-MB-435 cell lines was reported.; conditions: Homo sapiens, read-out: Log TGI (converted)

Cc1ccc2cccc(NC(=O)c3cc4c(cc3Cl)Sc3nccn3S4(=O)=O)c2n1
TGI (IGROV-1 [1]): 6.92 µM | GI50 (DU-145 [2]): 5.5 µM | TGI (DU-145 [3]): 17.8 µM | CC50 (HL-60): 3.8 µM | CC50 (MDA-MB-231): 49 µM | TGI (UACC-62): 30.9 µM | TGI (M14): 22.9 µM | CC50 (SK-MEL-28): 75.9 µM | CC50 (PC-3 [4]): 32.4 µM | CC50 (IGROV-1 [5]): 23.4 µM | GI50 (EKVX): 17 µM | GI50 (HOP-62): 0.049 µM | GI50 (HOP-92): 14.5 µM | GI50 (NCI-H46): 2.63 µM | GI50 (NCI-H226): 15.1 µM | GI50 (NCI-H23): 13.8 µM | GI50 (NCI-H322M): 12 µM | CC50 (RXF 393): 64.6 µM | GI50 (OVCAR-3): 2.95 µM | GI50 (PC-3 [6]): 2.69 µM | GI50 (ACHN): 8.51 µM | GI50 (COLO 205): 17 µM | GI50 (LOX IMVI): 5.01 µM | CC50 (HCC 2998): 14.5 µM | GI50 (HT-29): 9.55 µM | TGI (SR): 5.89 µM | TGI (A498): 40.7 µM | CC50 (OVCAR-8): 53.7 µM | GI50 (MDA-MB-435 [7]): 7.94 µM | TGI (MDA-MB-435 [8]): 22.9 µM

From ChEMBL document CHEMBL1135808, “A new type of mixed anhydride and its applications to the synthesis of 7-substituted 8-chloro-5,5-dioxoimidazo[1,2-b][1,4,2]benzodithiazines with in vitro antitumor activity” (2002)
